In US20210300940A1 (Merck Patent GmbH, priority 2018, published 2021):

Experiments:
TLR8 = target: T1, TLR8 (Homo sapiens, UniProt Q9NR97); assay: HEK/293 TLR8 Cell Assay; format: cell-based; details: HEK cells, R848 agonist 30 uM final concentration, Steady-Glo readout; read-out: TLR8 potency
T1 construct: expressed in transfected cells; host or cells: HEK/293 reporter cells (NF-kB luciferase)
T1 sequence (Q9NR97 27-1041): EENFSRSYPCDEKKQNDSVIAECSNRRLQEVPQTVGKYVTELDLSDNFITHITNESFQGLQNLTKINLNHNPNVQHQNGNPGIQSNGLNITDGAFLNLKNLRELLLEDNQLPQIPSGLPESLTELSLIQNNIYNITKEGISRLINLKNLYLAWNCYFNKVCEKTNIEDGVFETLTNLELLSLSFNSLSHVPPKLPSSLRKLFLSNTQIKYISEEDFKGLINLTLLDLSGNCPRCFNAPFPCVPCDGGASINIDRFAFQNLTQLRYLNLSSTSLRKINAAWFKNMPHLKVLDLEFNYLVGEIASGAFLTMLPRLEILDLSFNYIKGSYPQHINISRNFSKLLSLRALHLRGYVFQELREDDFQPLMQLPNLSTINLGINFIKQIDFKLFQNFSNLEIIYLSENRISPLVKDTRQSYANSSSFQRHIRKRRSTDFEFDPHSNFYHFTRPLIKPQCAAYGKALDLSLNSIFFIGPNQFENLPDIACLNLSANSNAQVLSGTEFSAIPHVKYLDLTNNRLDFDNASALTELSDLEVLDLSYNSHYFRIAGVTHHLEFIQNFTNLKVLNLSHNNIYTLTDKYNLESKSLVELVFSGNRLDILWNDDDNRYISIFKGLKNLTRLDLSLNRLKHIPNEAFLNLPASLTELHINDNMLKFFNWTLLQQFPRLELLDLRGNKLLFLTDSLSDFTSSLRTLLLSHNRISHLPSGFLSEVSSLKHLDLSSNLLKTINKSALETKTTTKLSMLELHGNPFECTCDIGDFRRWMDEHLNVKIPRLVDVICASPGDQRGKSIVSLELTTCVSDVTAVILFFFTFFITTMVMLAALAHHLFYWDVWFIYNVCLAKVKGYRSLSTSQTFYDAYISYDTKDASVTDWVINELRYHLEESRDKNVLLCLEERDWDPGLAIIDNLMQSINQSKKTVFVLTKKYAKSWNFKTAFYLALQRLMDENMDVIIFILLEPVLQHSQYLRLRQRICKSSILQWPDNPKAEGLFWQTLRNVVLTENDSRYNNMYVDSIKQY

TLR7 = target: T2, TLR7 (Homo sapiens, UniProt Q9NYK1); assay: HEK/293 TLR7 Cell Assay; format: cell-based; details: TLR7/NFKb HEK cells, R848 agonist 10 uM final concentration, Steady-Glo readout; read-out: TLR7 potency
T2 construct: expressed in transfected cells; host or cells: HEK/293 cells carrying TLR7 and an NF-kB luciferase reporter
T2 sequence (Q9NYK1 27-1049): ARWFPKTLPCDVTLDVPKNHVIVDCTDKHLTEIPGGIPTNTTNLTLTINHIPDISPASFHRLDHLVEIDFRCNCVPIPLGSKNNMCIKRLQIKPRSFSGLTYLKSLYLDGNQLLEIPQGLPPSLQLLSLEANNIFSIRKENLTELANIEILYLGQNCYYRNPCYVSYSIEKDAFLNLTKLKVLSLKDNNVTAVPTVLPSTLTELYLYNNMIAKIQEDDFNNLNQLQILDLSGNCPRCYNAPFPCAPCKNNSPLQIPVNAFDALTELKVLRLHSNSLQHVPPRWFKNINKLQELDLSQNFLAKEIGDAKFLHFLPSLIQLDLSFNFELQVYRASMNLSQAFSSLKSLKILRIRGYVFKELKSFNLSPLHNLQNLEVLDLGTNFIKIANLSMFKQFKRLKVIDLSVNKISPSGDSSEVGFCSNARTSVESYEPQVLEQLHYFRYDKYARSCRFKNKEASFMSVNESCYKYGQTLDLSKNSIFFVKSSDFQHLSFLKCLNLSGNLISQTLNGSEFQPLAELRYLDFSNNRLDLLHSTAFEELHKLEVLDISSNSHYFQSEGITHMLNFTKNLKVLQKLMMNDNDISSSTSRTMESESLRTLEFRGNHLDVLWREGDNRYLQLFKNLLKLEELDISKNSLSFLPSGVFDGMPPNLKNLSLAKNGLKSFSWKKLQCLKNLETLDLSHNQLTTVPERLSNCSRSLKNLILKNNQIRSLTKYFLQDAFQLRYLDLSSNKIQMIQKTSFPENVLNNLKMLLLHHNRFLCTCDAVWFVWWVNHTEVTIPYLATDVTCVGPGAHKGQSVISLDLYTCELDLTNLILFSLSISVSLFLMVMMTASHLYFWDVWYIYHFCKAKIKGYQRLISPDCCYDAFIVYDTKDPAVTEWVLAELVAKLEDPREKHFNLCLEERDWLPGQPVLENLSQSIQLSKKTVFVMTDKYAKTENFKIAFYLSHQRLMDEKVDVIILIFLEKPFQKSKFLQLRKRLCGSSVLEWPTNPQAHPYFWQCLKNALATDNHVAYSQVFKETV
In short: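 Compounds added to HEK cells expressing TLR7 with an NFκB reporter 30 min ahead of 10 uM R848 challenge; luciferase signal (Steady-Glo) measured after 5 h, cells having been seeded 24 h earlier at 5000 per well.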

In the case of `C[C@@H]1CN(c2cnc(C#N)c3ncccc23)C[C@H](C(=O)NCC(O)C(F)(F)F)O1` (stereo partly drawn) [Example 269, (2R,6R)-4-(8-Cyano-[1,7]naphthyridin-5-yl)-6-methyl-morpholine-2-carboxylic acid (3,3,3-trifluoro-2-hydroxy-propyl)-amide], the IC50 (TLR8) is reported as > 150 nM and the IC50 (TLR7) is reported as > 150 nM.
`C[C@H]1C[C@@H](NC(=O)[C@@H](C)N2CCC(O)CC2)CN(c2ccc(C(F)(F)F)c3ncccc23)C1` (single isomer, unassigned) [Example 105] was tested, and the IC50 (TLR8) was < 75 nM and the IC50 (TLR7) was > 150 nM.
For `N#Cc1ccc(N2C[C@H](NC(=O)C3(F)CCNC3)C[C@H](C(F)(F)F)C2)c2cccnc12` (single isomer, unassigned) [Example 163], the IC50 (TLR8) was < 75 nM and the IC50 (TLR7) was < 75 nM.
With `CN1CCC(F)(CNC(=O)[C@@H]2CN(c3cnc(C#N)c4ncccc34)C[C@H](C(F)(F)F)O2)CC1` (single isomer, unassigned) [Example 351] the IC50 (TLR8) was < 75 nM and the IC50 (TLR7) was < 75 nM.
`C[C@H]1C[C@@H](NC(=O)CC2(F)CCN(C)CC2)CN(c2ccc(C#N)c3nccnc23)C1` [Example 192, N-[(3R,5S)-1-(8-Cyano-quinoxalin-5-yl)-5-methyl-piperidin-3-yl]-2-(4-fluoro-1-methyl-piperidin-4-yl)-acetamide] was tested, and the IC50 (TLR8) was < 75 nM and the IC50 (TLR7) was < 75 nM.
Work on `C[C@H](O)CNC(=O)[C@@H]1CN(c2ccc(C#N)c3nccnc23)C[C@H](C(F)(F)F)O1` (single isomer, unassigned) [Example 287] yielded an IC50 (TLR8) of 75 to 150 nM and an IC50 (TLR7) of 75 to 150 nM.
`C[C@H]1C[C@@H](NCCCS(C)(=O)=O)CN(c2ccc(C#N)c3nccnc23)C1` [Example 21, 8-[(3R,5S)-3-[(3-methanesulfonylpropyl)amino]-5-methylpiperidin-1-yl]quinoxaline-5-carbonitrile methanesulfonamide] was tested, and the IC50 (TLR8) was < 75 nM and the IC50 (TLR7) was < 75 nM.
For `C[C@H]1C[C@@H](NC(=O)CN2CCN(C)CC2)CN(c2cnc(C#N)c3nccnc23)C1` [Example 188, N-[(3R,5S)-1-(5-Cyano-pyrido[3,4-b]pyrazin-8-yl)-5-methyl-piperidin-3-yl]-2-(4-methyl-piperazin-1-yl)-acetamide], the IC50 (TLR8) was < 75 nM and the IC50 (TLR7) was < 75 nM.
In the case of `C[C@H]1C[C@@H](NC(=O)CCN)CN(c2ccc(C(F)(F)F)c3ncccc23)C1` [Example 166, 3-Amino-N-[(3R,5S)-5-methyl-1-(8-trifluoromethyl-quinolin-5-yl)-piperidin-3-yl]-propionamide], the IC50 (TLR8) is reported as < 75 nM and the IC50 (TLR7) is reported as 75 to 150 nM.
`C[C@H]1C[C@@H](NC(=O)[C@@H](C)N2CCC(O)CC2)CN(c2ccc(C#N)c3nccnc23)C1` (single isomer, unassigned) [Example 103] was tested, and the IC50 (TLR8) was < 75 nM and the IC50 (TLR7) was > 150 nM.
With `CCOc1ncc(N2C[C@H](N)C[C@H](C(F)(F)F)C2)c2cccnc12` [Example 10, (3R,5S)-1-(8-Ethoxy-[1,7]naphthyridin-5-yl)-5-trifluoromethyl-piperidin-3-ylamine] the IC50 (TLR8) was > 150 nM and the IC50 (TLR7) was > 150 nM.
With `C[C@H]1C[C@@H](NC(=O)[C@@H]2C[C@H](O)CN2)CN(c2ccc(C#N)c3nccnc23)C1` [Example 116, (2S,4S)—N-[(3R,5S)-1-(8-cyanoquinoxalin-5-yl)-5-methylpiperidin-3-yl]-4-hydroxypyrrolidine-2-carboxamide] the IC50 (TLR8) was < 75 nM and the IC50 (TLR7) was > 150 nM.
In the case of `C[C@H]1C[C@@H](NCC2(O)CCOCC2)CN(c2cnc(C(F)(F)F)c3ncccc23)C1` [Example 11, 4-{[(3R,5S)-5-Methyl-1-(8-trifluoromethyl-[1,7]naphthyridin-5-yl)-piperidin-3-ylamino]-methyl}-tetrahydro-pyran-4-ol], the IC50 (TLR8) is reported as > 150 nM and the IC50 (TLR7) is reported as > 150 nM.
With `N#Cc1ccc(N2C[C@@H](CN3CCC4(CC3)CC(=O)N4)O[C@@H](C(F)(F)F)C2)c2nccnc12` (single isomer, unassigned) [Example 364] the IC50 (TLR8) was > 150 nM and the IC50 (TLR7) was < 75 nM.
